Where a name gives a salt, the structure may show the parent alone. Read-outs that look alike come from different tables or passages of the source.

The test system of data set [1] is platelet aggregation. The settings on record: in vitro; Il Farmaco, 44 (5), 495-502, 1989; cited from earlier work.
For data set [2] the following is noted: alleged in literature; cited from earlier work.
Data set [3] relates to mice. The settings on record: in mice; cited from earlier work.
Data set [4] relates to Carrageenan-induced rat paw oedema. The data set can be described thus: Test B: Carrageenan-induced rat paw oedema test. The data set is classed as in vivo, rat (female). The settings on record: Rattus norvegicus, po, 3 h, inhibition of paw oedema, 1 h before carrageenan, 3 h after injection. The procedure:
Carrageenan-induced rat paw oedema test
Female rats, weight range 125-150 g were fasted overnight. One of the hind legs of each animal was marked with a line at the connection between the cuboid/navicular and calcaneus/talus bones. Groups of six rats were orally dosed at 10 ml/kg, in random order, with a given dose of the test compound given as a solution or suspension in 10% (w/v) aqueous acacia solution.
One hour after dosing, 0.1 ml of 1% (w/v) sterile carrageenan λ in normal saline was injected deeply into the plantar surface of the marked hind foot of each rat. The volume of the foot (up to the marked line) was measured immediately after injection using duplicate water displacement readings. Three hours after injection the foot volume was measured again and the percentage increase in foot volume relative to the initial reading was calculated.
The increase in foot volume (i.e. the degree of oedema) in drug treated animals when compared with that in the drug untreated control gave the degree of inhibition of paw oedema by the drug.
Compounds were considered to be active in this test if they produced a 20% or greater inhibition of paw oedema in at least two out of three tests after oral dosing at 100 mg/kg. Statistical significance was assessed using the Student't test for single dose studies and Dunnett's test for multiple dose studies. More advantageous compounds were active in both Tests A and B,
A general note: In the carrageenan paw model, swelling and tenderness develop within hours.

The test system of data set [5] is Zymosan Stimulated Macrophaqes. The data set can be described thus: Test A: Inhibition of Arachidonic Acid Release from Zymosan Stimulated Macrophages. The data set is classed as cell-based, mouse (female MF1). The settings on record: Mus musculus, Macrophage, 5 h, read-out: Test A IC50. An outline of the steps: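 Peritoneal macrophages from female MF1 mice, labelled overnight with [3H]-arachidonic acid (1.6 μCi/ml final), adherent cells pretreated 24 h with drug, then stimulated 5 h with fresh drug plus stimulus at 37° C. Released label counted by scintillation; net stimulated release inhibition at 1–100 μM gives IC50.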

Setting [6] is: inhibition of arachidonic acid release, six concentrations (100, 50, 20, 10, 5 and 1 μM), 5 h with zymosan.

On to `CC(CCn1ccnc1)NCc1ccccc1` (stereo not shown) [Compound A], for which, in data set [1], the “inhibitory effect on platelet aggregation” value is given as “inhibitory effect on platelet aggregation in vitro”.
`CCC(NCC(C)N1CCOCC1)c1ccc(Cl)c(Cl)c1` (stereo not drawn) [N-[2-(4-Morpholino)propyl]-α-ethyl-3,4-dichlorobenzylamine]: in data set [2], the antiinflammatory activity entry is listed as “antiinflanmmtory activity”. For the same molecule, the undesirable side-effects entry in data set [3] is given as “wide range of undesirable side-effects in mice”.
The inhibition in vivo is the change of the read-out against control, counted positive when it falls. By IC50 is commonly meant the point on the concentration scale where inhibition reaches its midpoint. Take `Cc1ncn(CCCNC(C)c2ccc(Cl)cc2)c1C` (stereo not shown) [Example 24, N-[1-(4-Chlorophenyl)ethyl]-3-(4,5-dimethylimidazol-1-yl)propylamine dihydrochloride]: 100 mg/kg produced 34% inhibition in vivo in data set [4]. In addition, in data set [5] (setting [6]), the IC50 amounted to 11 µM.
As for `COc1cc(C)c(CNCCCn2ccnc2)c(C)c1` [Example 50, 3-(imidazol-1-yl)-N-(4-methoxy-2,6-dimethylbenzyl)propylamine dihydrochloride], in data set [4], the inhibition in vivo at 100 mg/kg was 0%. Further, in data set [5] (setting [6]), the IC50 amounted to 31 µM.
With `Clc1ccc(C2(NCCCn3ccnc3)CC2)cc1` [Example 82, N-[1-(4-Chlorophenyl)cycloprop-1-yl]-3-(imidazol-1-yl)propylamine dihydrochloride], in data set [4], the inhibition in vivo at 100 mg/kg is 38%. Also, the IC50 in data set [5] (setting [6]) is 16 µM.
For `Cc1cn(CCCNC(C)c2ccc(Cl)cc2)c(-c2ccccc2)n1` (stereo not shown) [Example 33, N-[1-(4-chlorophenyl)ethyl]-3-(4-methyl-2-phenyl-imidazol-1-yl)propylamine], in that order: 2% and 10 µM.
On to `CC(NCCCn1ccnc1)c1ccccc1Cl` (stereo not shown) [Example 8, N-[1-(2-Chlorophenyl)ethyl]-3-(imidazol-1-yl)propylamine], for which the inhibition in vivo at 100 mg/kg in data set [4] is 55%. The IC50 in data set [5] (setting [6]) came to 92 µM.
As to `CC(NCCCn1ccnc1)c1ccc(Cl)cc1O` (stereo not shown) [Example 29, 5-chloro-2-{1-[3-(imidazol-1-yl)propylamino]ethyl}phenol dihydrochloride], in data set [4], testing at 100 mg/kg gave an inhibition in vivo of 36%. The IC50 in data set [5] (setting [6]) worked out at 34 µM.
In the same order, the values of `Cc1nccn1CCCNC(C)(C)c1ccc(Cl)cc1` [Example 60, N-[1-(4-chlorophenyl)-1-methylethyl]-3-(2-methylimidazol-1-yl)propylamine] are 59% and 9 µM.
In the same order, the values of `CC(C)(NCCCCn1ccnc1)c1ccc(Cl)cc1` [Example 89, N-[1-(4-chlorophenyl)-1-methylethyl]-4-(imidazol-1-yl)butylamine] are 51% and 40 µM.
As for `CC(NCCCn1ccnc1-c1ccccc1)c1ccc(Cl)cc1` (stereo not shown) [Example 25, N-[1-(4-Chlorophenyl)ethyl]-3-(2-phenylimidazol-1-yl)propylamine dihydrochloride hydrate], the inhibition in vivo at 100 mg/kg in data set [4] stood at 34%. Besides, the IC50 in data set [5] (setting [6]) worked out at 19 µM.
In data set [4], `c1ccc(Oc2ccc(CNCCCn3ccnc3)cc2)cc1` [Example 39, 3-(Imidazol-1-yl)-N-(4-phenoxybenzyl)propylamine] displayed an inhibition in vivo at 100 mg/kg of 35%. Besides, in data set [5] (setting [6]), the IC50 was found to be 10 µM.
For `Cc1ncn(CCCNCc2ccc(Cl)cc2)c1C` [Example 45, N-(4-Chlorobenzyl)-3-(4,5-dimethylimidazol-1-yl)propylamine dihydrochloride], the inhibition in vivo at 100 mg/kg in data set [4] worked out at 6%. Moreover, the IC50 in data set [5] (setting [6]) amounted to 8 µM.
Consider `CC(NCCCn1ccnc1)c1ccc(Oc2ccccc2)cc1` (stereo not shown) [Example 16, 3-(Imidazol-1-yl)-N-[1-(4-phenoxyphenyl)ethyl]propylamine], for which, in data set [4], 100 mg/kg produced 9% inhibition in vivo. Besides, in data set [5], the IC50 amounted to 8 µM.
Turning to `Cc1nccn1CCCNC(C)c1ccc(Cl)cc1` (stereo not shown) [Example 27, N-[1-(4-Chlorophenyl)ethyl]-3-(2-methylimidazol-1-yl)propylamine dihydrochloride], in data set [4], 100 mg/kg produced 27% inhibition in vivo. Also, the IC50 in data set [5] (setting [6]) is 8 µM.
For `CC(NCCCn1ccnc1)c1ccc(C(F)(F)F)cc1` (stereo not shown) [Example 11, 3-(Imidazol-1-yl)-N-[1-(4-trifluoromethylphenyl)ethyl]propylamine], in that order: 34% and 45 µM.
As to `CCOC(=O)c1ccc(C(C)(C)NCCCn2ccnc2)cc1` [Example 77, Ethyl 4-{1-[3-(imidazol-1-yl)propylamino]-1-methylethyl}benzoate], at 100 mg/kg the inhibition in vivo in data set [4] was 23%. The IC50 in data set [5] (setting [6]) was found to be 82 µM.
In data set [4], `Cc1cc(Cl)ccc1CNCCCn1ccnc1` [Example 40, N-(4-Chloro-2-methylbenzyl)-3-(imidazol-1-yl)propylamine dihydrochloride] returned an inhibition in vivo at 100 mg/kg of 31%. Also, the IC50 in data set [5] (setting [6]) was found to be 50 µM.
In data set [4], `Cc1ncn(CCCNC(C)(C)c2ccc(Cl)cc2)c1C` [Example 70, N-[1-(4-Chlorophenyl)-1-methylethyl]-3-(4,5-dimethylimidazol-1-yl)propylamine] returned an inhibition in vivo at 100 mg/kg of 21%. Moreover, the IC50 in data set [5] (setting [6]) worked out at 11 µM.
In data set [4], `CC(C)(NCCCCCn1ccnc1)c1ccc(Cl)cc1` [Example 62, N-[1-(4-chlorophenyl)-1-methylethyl]-5-(imidazol-1-yl)pentylamine] gave an inhibition in vivo at 100 mg/kg of 42%. Moreover, the IC50 in data set [5] (setting [6]) was found to be 21 µM.
As for `CC(NCCCn1ccnc1)c1ccc(OCc2ccccc2)cc1` (stereo not shown) [Example 5, N-[1-(4-Benzyloxyphenyl)ethyl]-3-(imidazol-1-yl)propylamine], in data set [4], the inhibition in vivo at 100 mg/kg is 5%. The IC50 in data set [5] (setting [6]) was found to be 12 µM.
In turn, `Clc1ccc(CNCCCn2ccnc2)cc1Cl` [Example 35, N-(3,4-dichlorobenzyl)-3-(imidazol-1-yl)propylamine] returned an inhibition in vivo at 100 mg/kg in data set [4] of 47%. In addition, the IC50 in data set [5] (setting [6]) turned out to be 21 µM.

The record behind these values is US5547972A, “Therapeutic agents useful for treating inflammatory diseases” (The Boots Company PLC, priority 1991, dated 1996).
